Source: paper PMC8523698, “Preclinical characterization of an intravenous coronavirus 3CL protease inhibitor for the potential treatment of COVID19” (Nature Communications, 2021)
Several values for one entry are separate records, joined by “and”; a condition that tells them apart may be missing. Identical values can stand only once.

Legend:
HCoV-229E = assay: Viral CPE assay in MRC-5 cells (CellTiter Glo); assay type: cell-based
MRC-5 cells = assay: Cytotoxicity in MRC-5 cells; details: for % Effect: CC50 run 30-Apr-2020

COc1cccc2[nH]c(C(=O)N[C@@H](CC(C)C)C(=O)N[C@@H](C[C@@H]3CCNC3=O)C(=O)CO)cc12 [PF-00835231-00]
% Well Effect (HCoV-229E; 0.000938825 uM, minus efflux inhibitor, EC50 run 17-Apr-2020): -3.33% and -1.20% | % Well Effect (HCoV-229E; 0.000938825 uM, minus efflux inhibitor, EC50 run 24-Apr-2020): 15.19% and 11.15% | % Well Effect (HCoV-229E; 0.000949267 uM, minus efflux inhibitor, EC50 run 11-Apr-2020): 5.04% and 4.22% and -1.30% and -1.77% | % Well Effect (HCoV-229E; 0.00297326 uM, minus efflux inhibitor, EC50 run 17-Apr-2020): -5.19% and 4.25% | % Well Effect (HCoV-229E; 0.00297326 uM, minus efflux inhibitor, EC50 run 24-Apr-2020): 5.52% and -0.60% | % Well Effect (HCoV-229E; 0.00300158 uM, minus efflux inhibitor, EC50 run 11-Apr-2020): 4.34% and 3.84% and 1.15% and -4.56% | % Well Effect (HCoV-229E; 0.007813 uM, minus efflux inhibitor, EC50 run 30-Apr-2020): 0.98% and 0.83% | % Well Effect (HCoV-229E; 0.00941631 uM, minus efflux inhibitor, EC50 run 17-Apr-2020): 1.75% and 4.31% | % Well Effect (HCoV-229E; 0.0298215 uM, minus efflux inhibitor, EC50 run 17-Apr-2020): 23.90% and 29.75% | % Well Effect (HCoV-229E; 0.0298215 uM, minus efflux inhibitor, EC50 run 24-Apr-2020): -2.80% and 5.98% | % Well Effect (HCoV-229E; 0.0300105 uM, minus efflux inhibitor, EC50 run 11-Apr-2020): 22.27% and 25.51% and 18.77% and 17.89% | % Well Effect (HCoV-229E; 0.03125 uM, minus efflux inhibitor, EC50 run 30-Apr-2020): 10.60% and 5.67% | % Well Effect (HCoV-229E; 0.0625 uM, minus efflux inhibitor, EC50 run 30-Apr-2020): 34.90% and 38.53% | % Well Effect (HCoV-229E; 0.0944446 uM, minus efflux inhibitor, EC50 run 17-Apr-2020): 86.84% and 95.70% | % Well Effect (HCoV-229E; 0.0944446 uM, minus efflux inhibitor, EC50 run 24-Apr-2020): 19.60% and 23.25% | % Well Effect (HCoV-229E; 0.0948933 uM, minus efflux inhibitor, EC50 run 11-Apr-2020): 74.74% and 86.04% and 87.19% and 85.97% | % Well Effect (HCoV-229E; 0.09491 uM, minus efflux inhibitor, EC50 run 3-Apr-2020): 60.58% and 66.48% and 51.57% and 67.27% | % Well Effect (HCoV-229E; 0.299106 uM, minus efflux inhibitor, EC50 run 17-Apr-2020): 107.11% and 115.95% | % Well Effect (HCoV-229E; 0.299106 uM, minus efflux inhibitor, EC50 run 24-Apr-2020): 59.17% and 71.11% | % Well Effect (HCoV-229E; 0.300053 uM, minus efflux inhibitor, EC50 run 11-Apr-2020): 109.88% and 116.26% and 114.19% and 115.61% | % Well Effect (HCoV-229E; 0.300105 uM, minus efflux inhibitor, EC50 run 3-Apr-2020): 99.66% and 103.56% and 105.08% and 101.55% | % Well Effect (HCoV-229E; 0.5 uM, minus efflux inhibitor, EC50 run 30-Apr-2020): 102.45% and 101.06% | % Well Effect (HCoV-229E; 0.947269 uM, minus efflux inhibitor, EC50 run 17-Apr-2020): 102.69% and 111.34% | % Well Effect (HCoV-229E; 0.947269 uM, minus efflux inhibitor, EC50 run 24-Apr-2020): 73.36% and 89.87% | % Well Effect (HCoV-229E; 0.948767 uM, minus efflux inhibitor, EC50 run 11-Apr-2020): 109.36% and 109.78% and 108.04% and 112.87% | % Well Effect (HCoV-229E; 0.948933 uM, minus efflux inhibitor, EC50 run 3-Apr-2020): 100.40% and 104.08% and 100.39% and 101.88% | % Well Effect (HCoV-229E; 1 uM, minus efflux inhibitor, EC50 run 30-Apr-2020): 105.73% and 102.25% | % Well Effect (HCoV-229E; 3 uM, minus efflux inhibitor, EC50 run 11-Apr-2020): 107.90% and 109.07% and 108.64% and 109.54% | % Well Effect (HCoV-229E; 3 uM, minus efflux inhibitor, EC50 run 17-Apr-2020): 101.53% and 109.98% | % Well Effect (HCoV-229E; 3 uM, minus efflux inhibitor, EC50 run 24-Apr-2020): 75.89% and 83.80% | % Well Effect (HCoV-229E; 3 uM, plus 0.5 uM efflux inhibitor, EC50 run 22-may-2020): 87.68% | % Well Effect (HCoV-229E; 3 uM, plus 0.5 uM efflux inhibitor, EC50 run 24-Apr-2020): 59.97% | % Well Effect (HCoV-229E; 3.00053 uM, minus efflux inhibitor, EC50 run 3-Apr-2020): 99.82% and 106.83% and 102.14% and 104.18% | % Well Effect (HCoV-229E; 9.48767 uM, minus efflux inhibitor, EC50 run 3-Apr-2020): 101.96% and 104.70% and 102.25% and 105.36% | % Well Effect (HCoV-229E; 30 uM, minus efflux inhibitor, EC50 run 3-Apr-2020): 102.99% and 107.66% and 105.96% and 105.84% | % Well Effect (MRC-5 cells; 0.0316422 uM, minus efflux inhibitor, CC50 run 24-Apr-2020): 5.91% and -1.40% | % Well Effect (MRC-5 cells; 0.100053 uM, minus efflux inhibitor, CC50 run 24-Apr-2020): 0.31% and -2.42% | % Well Effect (MRC-5 cells; 0.316367 uM, minus efflux inhibitor, CC50 run 24-Apr-2020): 0.82% and -3.88% | % Well Effect (MRC-5 cells; 3.16311 uM, minus efflux inhibitor, CC50 run 24-Apr-2020): 2.27% and -2.51% | % Well Effect (MRC-5 cells; 3.16311 uM, plus 0.5 uM efflux inhibitor, CC50 run 22-may-2020): 2.26% | % Well Effect (MRC-5 cells; 3.16311 uM, plus 0.5 uM efflux inhibitor, CC50 run 24-Apr-2020): -4.43% | % Well Effect (MRC-5 cells; 10.0018 uM, minus efflux inhibitor, CC50 run 24-Apr-2020): 4.47% and -3.27% | % Well Effect (MRC-5 cells; 10.0018 uM, plus 0.5 uM efflux inhibitor, CC50 run 22-may-2020): 2.88% | % Well Effect (MRC-5 cells; 10.0018 uM, plus 0.5 uM efflux inhibitor, CC50 run 24-Apr-2020): -5.99% | % Well Effect (MRC-5 cells; 31.6256 uM, minus efflux inhibitor, CC50 run 24-Apr-2020): 0.83% and -8.49% | % Well Effect (MRC-5 cells; 31.6256 uM, plus 0.5 uM efflux inhibitor, CC50 run 22-may-2020): 5.31% | % Well Effect (MRC-5 cells; 31.6256 uM, plus 0.5 uM efflux inhibitor, CC50 run 24-Apr-2020): -3.70% | % Well Effect (MRC-5 cells; 100 uM, minus efflux inhibitor, CC50 run 24-Apr-2020): -3.72% and -12.98% | % Well Effect (MRC-5 cells; 100 uM, plus 0.5 uM efflux inhibitor, CC50 run 22-may-2020): -0.43% | % Well Effect (MRC-5 cells; 100 uM, plus 0.5 uM efflux inhibitor, CC50 run 24-Apr-2020): -3.29% | % Well Effect (MRC-5 cells; CC50 data, MRC-5 cells, run 22-may-2020, plate GCNS00043792A, [Assay] 0.031642 uM): -3.27% and -2.12% | % Well Effect (MRC-5 cells; CC50 data, MRC-5 cells, run 22-may-2020, plate GCNS00043792A, [Assay] 0.100053 uM): -1.81% and 2.13% | % Well Effect (MRC-5 cells; CC50 data, MRC-5 cells, run 22-may-2020, plate GCNS00043792A, [Assay] 0.316367 uM): -2.43% and 2.23% | % Well Effect (MRC-5 cells; CC50 data, MRC-5 cells, run 22-may-2020, plate GCNS00043792A, [Assay] 1.00035 uM): 1.33% and 1.48% | % Well Effect (MRC-5 cells; CC50 data, MRC-5 cells, run 22-may-2020, plate GCNS00043792A, [Assay] 3.16311 uM): -3.27% | % Well Effect (MRC-5 cells; CC50 data, MRC-5 cells, run 22-may-2020, plate GCNS00043792A, [Assay] 10.0018 uM): -1.55% | % Well Effect (MRC-5 cells; CC50 data, MRC-5 cells, run 22-may-2020, plate GCNS00043792A, [Assay] 31.6256 uM): 0.64% | % Well Effect (MRC-5 cells; CC50 data, MRC-5 cells, run 22-may-2020, plate GCNS00043792A, [Assay] 100 uM): -1.12% | % Well Effect (MRC-5 cells; CC50 data, MRC-5 cells, run 24-Apr-2020, plate GCNS00043676A, [Assay] 0.0316422 uM): -8.00% and -3.89% | % Well Effect (MRC-5 cells; CC50 data, MRC-5 cells, run 24-Apr-2020, plate GCNS00043676A, [Assay] 0.100053 uM): -11.58% and -9.10% | % Well Effect (MRC-5 cells; CC50 data, MRC-5 cells, run 24-Apr-2020, plate GCNS00043676A, [Assay] 0.316367 uM): -6.82% and -8.60% | % Well Effect (MRC-5 cells; CC50 data, MRC-5 cells, run 24-Apr-2020, plate GCNS00043676A, [Assay] 1.00035 uM): -10.61% and -9.50% | % Well Effect (MRC-5 cells; CC50 data, MRC-5 cells, run 24-Apr-2020, plate GCNS00043676A, [Assay] 3.16311 uM): -5.78% | % Well Effect (MRC-5 cells; CC50 data, MRC-5 cells, run 24-Apr-2020, plate GCNS00043676A, [Assay] 10.0018 uM): -3.01% | % Well Effect (MRC-5 cells; CC50 data, MRC-5 cells, run 24-Apr-2020, plate GCNS00043676A, [Assay] 31.6256 uM): -3.17% | % Well Effect (MRC-5 cells; CC50 data, MRC-5 cells, run 24-Apr-2020, plate GCNS00043676A, [Assay] 100 uM): 0.84% | % Effect (MRC-5 cells; Concentration 0.78125, minus efflux inhibitor): -1.26% and -6.59% | % Effect (MRC-5 cells; Concentration 1.5625, minus efflux inhibitor): -9.86% and -8.48% | % Effect (MRC-5 cells; Concentration 3.125, minus efflux inhibitor): -3.51% and -6.64% | % Effect (MRC-5 cells; Concentration 6.25, minus efflux inhibitor): -4.42% and -7.91% | % Effect (MRC-5 cells; Concentration 12.5, minus efflux inhibitor): -6.72% and -7.11% | % Effect (MRC-5 cells; Concentration 25, minus efflux inhibitor): -6.44% and -6.96% | % Effect (MRC-5 cells; Concentration 50, minus efflux inhibitor): -10.88% and -4.85% | % Effect (MRC-5 cells; Concentration 100, minus efflux inhibitor): -4.27% and -7.38%
